Test results as given in patent publication US10227323B2, “Glucosylceramide synthase inhibitors for the treatment of diseases” (BIOMARIN PHARMACEUTICAL INC., priority 2013, dated 2019).

Biological target: T1, GCS (Canis lupus familiaris, UniProt A0A8I3MXG6)
T1 sequence (A0A8I3MXG6 1-394): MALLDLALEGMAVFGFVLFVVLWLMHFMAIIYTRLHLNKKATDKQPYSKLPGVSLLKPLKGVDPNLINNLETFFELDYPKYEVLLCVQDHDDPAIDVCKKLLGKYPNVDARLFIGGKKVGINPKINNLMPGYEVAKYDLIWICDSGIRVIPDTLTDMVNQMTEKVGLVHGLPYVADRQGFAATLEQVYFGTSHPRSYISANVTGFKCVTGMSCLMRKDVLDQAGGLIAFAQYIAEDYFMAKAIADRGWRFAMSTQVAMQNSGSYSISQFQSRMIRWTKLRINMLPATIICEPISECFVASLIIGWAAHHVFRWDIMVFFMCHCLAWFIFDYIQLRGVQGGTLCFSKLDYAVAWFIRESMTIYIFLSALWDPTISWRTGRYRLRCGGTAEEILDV
Assay: Assay 1: GCS Enzymatic Assay (MDCK cell lysate, C6-NBD-Ceramide, LC/MS)
Assay type: biochemical, canine
Details: Table 2; for IC50: data without asterisk, read-out: IC50 (nM) generated from Assay 1
Summary of the method: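 LC/MS/MS measurement of glucosylceramide and NBD-ceramide after a 1 h, 37 °C reaction with 100 μM UDP-glucose and 10 μM C6-NBD-ceramide gave IC50s or percent inhibition.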

Compound | IC50 [nM] | % inhibition generated from Assay 1 (data marked by *)
O=C(N[C@H](CN1CCCC1)[C@H](O)c1ccc(OC2CC2)c(Cl)c1)C(=O)c1cccc(-c2ccc(F)cc2)c1 [Compound 251, N-((1R,2R)-1-(3-chloro-4-cyclopropoxyphenyl)-1-hydroxy-3-(pyrrolidin-1-yl)propan-2-yl)-2-(4′-fluoro-[1,1′-biphenyl]-3-yl)-2-oxoacetamide] | < 50 | 
O=C(N[C@H](CN1CCCC1)[C@H](O)c1ccc2c(c1)OCCO2)C(=O)N1CCN(c2ccc(F)cc2)CC1 [Compound 252, N-((1R,2R)-1-(2,3-dihydrobenzo[b][1,4]dioxin-6-yl)-1-hydroxy-3-(pyrrolidin-1-yl)propan-2-yl)-2-(4-(4-fluorophenyl)piperazin-1-yl)-2-oxoacetamide] |  | A* (the compound had a % inhibition of a percent inhibition of greater than or equal to about 50%)
O=C(N[C@H](CN1CCCC1)[C@H](O)c1cc(F)c2c(c1)OCCO2)C(=O)N1CCN(c2ccc(F)cc2)CC1 [Compound 254, N-((1R,2R)-1-(8-fluoro-2,3-dihydrobenzo[b][1,4]dioxin-6-yl)-1-hydroxy-3-(pyrrolidin-1-yl)propan-2-yl)-2-(4-(4-fluorophenyl)piperazin-1-yl)-2-oxoacetamide] | < 50 | 
CC(C)n1ncc2ccc(-c3ccc(C(=O)C(=O)N[C@H](CN4CCCC4)[C@H](O)c4ccc(OC5CC5)c(Cl)c4)cc3)cc21 [Compound 256, N-((1R,2R)-1-(3-chloro-4-cyclopropoxyphenyl)-1-hydroxy-3-(pyrrolidin-1-yl)propan-2-yl)-2-(4-(1-isopropyl-1H-indazol-6-yl)phenyl)-2-oxoacetamide] | < 50 | 
CC(C)n1cc2ccc(-c3ccc(C(=O)C(=O)N[C@H](CN4CCCC4)[C@H](O)c4ccc(OC5CC5)c(Cl)c4)cc3)cc2n1 [Compound 257, N-((1R,2R)-1-(3-chloro-4-cyclopropoxyphenyl)-1-hydroxy-3-(pyrrolidin-1-yl)propan-2-yl)-2-(4-(2-isopropyl-2H-indazol-6-yl)phenyl)-2-oxoacetamide] | < 50 | 
CC1(C)COc2c(F)cc([C@@H](O)[C@@H](CN3CCCC3)NC(=O)C(=O)c3ccc(-c4ccc(F)cc4)cc3)cc2O1 [Compound 362, N-((1R,2R)-1-(8-fluoro-3,3-dimethyl-2,3-dihydrobenzo[b][1,4]dioxin-6-yl)-1-hydroxy-3-(pyrrolidin-1-yl)propan-2-yl)-2-(4′-fluoro-[1,1′-biphenyl]-4-yl)-2-oxoacetamide] | < 50 | 
COc1c(F)cc([C@@H](O)[C@@H](CN2CCCC2)NC(=O)C(=O)c2cc3ccc(Cl)cc3s2)cc1OC(C)C [Compound 364, 2-(6-chlorobenzo[b]thiophen-2-yl)-N-((1R,2R)-1-(3-fluoro-5-isopropoxy-4-methoxyphenyl)-1-hydroxy-3-(pyrrolidin-1-yl)propan-2-yl)-2-oxoacetamide] | 50 to 5000 | 
O=C(N[C@H](CN1CCCC1)[C@H](O)c1ccc(OC2CC2)c(Cl)c1)C(=O)c1cc2ccc(Cl)cc2o1 [Compound 365, N-((1R,2R)-1-(3-chloro-4-cyclopropoxyphenyl)-1-hydroxy-3-(pyrrolidin-1-yl)propan-2-yl)-2-(6-chlorobenzofuran-2-yl)-2-oxoacetamide] | < 50 | 
O=C(N[C@H](CN1CCCC1)[C@H](O)c1ccc(OC2CC2)c(Cl)c1)C(=O)c1ccc(N2CCOCC2)cc1 [Compound 368, N-((1R,2R)-1-(3-chloro-4-cyclopropoxyphenyl)-1-hydroxy-3-(pyrrolidin-1-yl)propan-2-yl)-2-(4-morpholinophenyl)-2-oxoacetamide] | < 50 | 
O=C(N[C@H](CN1CCC1)[C@H](O)c1cc(F)c2c(c1)OCCO2)C(=O)c1ccc(N2CCOCC2)cc1 [Compound 369, N-((1R,2R)-3-(azetidin-1-yl)-1-(8-fluoro-2,3-dihydrobenzo[b][1,4]dioxin-6-yl)-1-hydroxypropan-2-yl)-2-(4-morpholinophenyl)-2-oxoacetamide] | < 50 | 
O=C(N[C@H](CN1CCCC1)[C@H](O)c1ccc(OC2CC2)c(Cl)c1)C(=O)c1ccc(C2CCOCC2)cc1 [Compound 372, N-((1R,2R)-1-(3-chloro-4-cyclopropoxyphenyl)-1-hydroxy-3-(pyrrolidin-1-yl)propan-2-yl)-2-oxo-2-(4-(tetrahydro-2H-pyran-4-yl)phenyl)acetamide] | < 50 | 
O=C(N[C@H](CN1CCCC1)[C@H](O)c1cc(F)c2c(c1)OCCO2)C(=O)c1ccc(C2CCOCC2)cc1 [Compound 373, N-((1R,2R)-1-(8-fluoro-2,3-dihydrobenzo[b][1,4]dioxin-6-yl)-1-hydroxy-3-(pyrrolidin-1-yl)propan-2-yl)-2-oxo-2-(4-(tetrahydro-2H-pyran-4-yl)phenyl)acetamide] | < 50 | 
O=C(N[C@H](CN1CCCC1)[C@H](O)c1ccc(OC2CC2)cc1)C(=O)c1ccc(N2CCOCC2)cc1 [Compound 374, N-((1R,2R)-1-(4-cyclopropoxyphenyl)-1-hydroxy-3-(pyrrolidin-1-yl)propan-2-yl)-2-(4-morpholinophenyl)-2-oxoacetamide] | 50 to 5000 | 

More lines, main results first:

IC50 [nM] | Compound | % inhibition generated from Assay 1 (data marked by *)
< 50 | O=C(N[C@H](CN1CCCC1)[C@H](O)c1ccc(OC2CC2)c(Cl)c1)C(=O)c1cccc(Oc2ccc(F)cc2)c1 [Compound 249, N-((1R,2R)-1-(3-chloro-4-cyclopropoxyphenyl)-1-hydroxy-3-(pyrrolidin-1-yl)propan-2-yl)-2-(3-(4-fluorophenoxy)phenyl)-2-oxoacetamide] | 
< 50 | O=C(N[C@H](CN1CCCC1)[C@H](O)c1cc(F)c2c(c1)OCCO2)C(=O)c1cccc(-c2ccc(F)cc2)c1 [Compound 250, N-((1R,2R)-1-(8-fluoro-2,3-dihydrobenzo[b][1,4]dioxin-6-yl)-1-hydroxy-3-(pyrrolidin-1-yl)propan-2-yl)-2-(4′-fluoro-[1,1′-biphenyl]-3-yl)-2-oxoacetamide] | 
< 50 | O=C(N[C@H](CN1CCC1)[C@H](O)c1ccc(OC2CC2)c(Cl)c1)C(=O)c1ccc(-c2ccc(F)cc2)cc1 [Compound 253, N-((1R,2R)-3-(azetidin-1-yl)-1-(3-chloro-4-cyclopropoxyphenyl)-1-hydroxypropan-2-yl)-2-(4′-fluoro-[1,1′-biphenyl]-4-yl)-2-oxoacetamide] | 
< 50 | CC(C)(C)c1ccc(-c2ccc(C(=O)C(=O)N[C@H](CN3CCCC3)[C@H](O)c3ccc(OC4CC4)c(Cl)c3)cc2)cc1 [Compound 255, 2-(4′-(tert-butyl)-[1,1′-biphenyl]-4-yl)-N-((1R,2R)-1-(3-chloro-4-cyclopropoxyphenyl)-1-hydroxy-3-(pyrrolidin-1-yl)propan-2-yl)-2-oxoacetamide] | 
< 50 | O=C(N[C@H](CN1CCCC1)[C@H](O)c1cc(F)c2c(c1)OCCO2)C(=O)c1ccc(-c2ccc(Cl)s2)cc1 [Compound 360, 2-(4-(5-chlorothiophen-2-yl)phenyl)-N-((1R,2R)-1-(8-fluoro-2,3-dihydrobenzo[b][1,4]dioxin-6-yl)-1-hydroxy-3-(pyrrolidin-1-yl)propan-2-yl)-2-oxoacetamide] | 
50 to 5000 | COc1c(F)cc([C@@H](O)[C@@H](CN2CCCC2)NC(=O)C(=O)c2ccc(-c3ccc(F)cc3)cc2)cc1OC(C)C [Compound 361, N-((1R,2R)-1-(3-fluoro-5-isopropoxy-4-methoxyphenyl)-1-hydroxy-3-(pyrrolidin-1-yl)propan-2-yl)-2-(4′-fluoro-[1,1′-biphenyl]-4-yl)-2-oxoacetamide] | 
< 50 | O=C(N[C@H](CN1CCCC1)[C@H](O)c1ccc(OC2CC2)c(Cl)c1)C(=O)c1ccc(-c2ccc(Cl)s2)cc1 [Compound 363, N-((1R,2R)-1-(3-chloro-4-cyclopropoxyphenyl)-1-hydroxy-3-(pyrrolidin-1-yl)propan-2-yl)-2-(4-(5-chlorothiophen-2-yl)phenyl)-2-oxoacetamide] | 
< 50 | O=C(N[C@H](CN1CCCC1)[C@H](O)c1cc(F)c2c(c1)OCCO2)C(=O)c1cc2ccc(Cl)cc2o1 [Compound 366, 2-(6-chlorobenzofuran-2-yl)-N-((1R,2R)-1-(8-fluoro-2,3-dihydrobenzo[b][1,4]dioxin-6-yl)-1-hydroxy-3-(pyrrolidin-1-yl)propan-2-yl)-2-oxoacetamide] | 
< 50 | O=C(N[C@H](CN1CCCC1)[C@H](O)c1ccc(OC2CC2)c(Cl)c1)C(=O)c1ccc(-c2ccc(C3CC3)cc2)cc1 [Compound 370, N-((1R,2R)-1-(3-chloro-4-cyclopropoxyphenyl)-1-hydroxy-3-(pyrrolidin-1-yl)propan-2-yl)-2-(4′-cyclopropyl-[1,1′-biphenyl]-4-yl)-2-oxoacetamide] | 
< 50 | O=C(N[C@H](CN1CCCC1)[C@H](O)c1cc(F)c2c(c1)OCCO2)C(=O)c1ccc(-c2ccc(C3CC3)cc2)cc1 [Compound 371, 2-(4′-cyclopropyl-[1,1′-biphenyl]-4-yl)-N-((1R,2R)-1-(8-fluoro-2,3-dihydrobenzo[b][1,4]dioxin-6-yl)-1-hydroxy-3-(pyrrolidin-1-yl)propan-2-yl)-2-oxoacetamide] | 
50 to 5000 | O=C(N[C@H](CN1CCCC1)[C@H](O)c1ccc(OC2CC2)c(Cl)c1)C(=O)c1ccc(N2CCC2)cc1 [Compound 375, 2-(4-(azetidin-1-yl)phenyl)-N-((1R,2R)-1-(3-chloro-4-cyclopropoxyphenyl)-1-hydroxy-3-(pyrrolidin-1-yl)propan-2-yl)-2-oxoacetamide] | 
< 50 | O=C(N[C@H](CN1CCCC1)[C@H](O)c1ccc(OC2CC2)c(Cl)c1)C(=O)c1ccc(F)cc1 [Compound 376, N-((1R,2R)-1-(3-chloro-4-cyclopropoxyphenyl)-1-hydroxy-3-(pyrrolidin-1-yl)propan-2-yl)-2-(4-fluorophenyl)-2-oxoacetamide] | 
